Source: US12558352B2, “Use of malic enzyme 1 (ME1) in preparation of drug for preventing and treating pulmonary hypertension (PH)” (Institute of Basic Medical Sciences, CAMS, priority 2022, dated 2026)

Assays:
[1] = Safety evaluation of preventive treatment (body weight, HE staining of organs); type: in vivo, mouse; details: 100 mg/kg intraperitoneally once a day
Description: Male SPF-grade C57BL/6J mice aged 8 to 10 weeks with a body weight of 25 g to 30 g were randomly divided into the following 4 groups: • (1) Normoxia+vehicle control group: 6 mice were fed in a normoxia environment for 3 weeks; from the second week, the mice were intraperitoneally injected with vehicle (100 mg/kg) once a day, for a total of 14 injections. • (2) Normoxia+ME1* treatment group: 6 mice were fed in a normoxia environment for 3 weeks; from the second week, the mice were intraperitoneally injected with ME1* (100 mg/kg) once a day, for a total of 14 injections. • (3) SuHx modeling+vehicle control group: 10 mice were treated with SuHx for 3 weeks (SuHx modeling method was the same as above); from the second week, the mice were intraperitoneally injected with vehicle (100 mg/kg) once a day, for a total of 14 injections. • (4) SuHx modeling+ME1* treatment group: 10 mice were treated with SuHx for 3 weeks; from the second week, the mice were intraperitoneally injected with ME1* (100 mg/kg) once a day, for a total of 14 injections. […]

ME1 = molecular target: T1, ME1 (Mus musculus, UniProt P06801); assay: Dose-finding: inhibition of ME1 enzymatic activity in lung tissue of normoxia mice after single intraperitoneal injection; type: in vivo; details: dose greater than or equal to 100 mg/kg (doses tested 1, 10, 100, 200, 500 mg/kg)
T1 construct: from tissue; host or cells: mouse lung tissue (normoxia mice, lysate after intraperitoneal dosing)
T1 sequence (P06801 1-572): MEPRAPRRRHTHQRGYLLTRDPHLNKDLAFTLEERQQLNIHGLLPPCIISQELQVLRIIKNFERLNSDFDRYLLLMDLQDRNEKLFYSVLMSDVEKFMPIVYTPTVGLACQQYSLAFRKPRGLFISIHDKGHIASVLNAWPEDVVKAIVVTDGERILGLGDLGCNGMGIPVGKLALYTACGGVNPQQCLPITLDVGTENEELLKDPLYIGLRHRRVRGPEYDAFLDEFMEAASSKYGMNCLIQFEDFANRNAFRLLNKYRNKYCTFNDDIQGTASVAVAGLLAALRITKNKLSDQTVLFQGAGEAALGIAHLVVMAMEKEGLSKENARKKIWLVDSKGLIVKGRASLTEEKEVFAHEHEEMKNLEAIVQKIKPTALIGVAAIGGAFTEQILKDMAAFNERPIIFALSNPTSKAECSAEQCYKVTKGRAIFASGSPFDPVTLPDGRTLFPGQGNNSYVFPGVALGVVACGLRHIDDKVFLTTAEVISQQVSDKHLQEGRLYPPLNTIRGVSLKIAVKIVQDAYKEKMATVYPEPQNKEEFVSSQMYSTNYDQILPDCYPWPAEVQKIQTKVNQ
Description: Histone supernatants or mitochondrial extracts were used to detect ME1 enzymatic activity. (1) Liquid preparation: an ME1 reaction buffer (pH=7.4) was prepared from 67 mM triethanolamine and 5.0 mM manganese chloride. (2) Sample preparation: a protein lysate was centrifuged at 13,000 rpm for 15 min at 4° C. (3) Adding samples: a reaction system included ME1 reaction buffer+L-malic acid (3.3 mM)+β-NADP^+ (0.3 mM)+protein lysate, with a total volume of 150 μL. (4) Reading was done with a multi-functional microplate reader, at a reading temperature maintained at 37° C., and an absorbance value was monitored at a wavelength of 340 nm every 50 s for a total of 30 min. (5) The protein concentration was determined for standardization. (6) The change of absorbance per mg of protein per unit time was calculated. In the present disclosure, normoxia mice are intraperitoneally injected with ME1*, at single injection doses of 1, 10, 100, 200, and 500 mg/kg, respectively, to explore the inhibitory effect of ME1* on the enzymatic activity of ME1 in mouse lung tissues.

SuHx-induced PH mice = assay: Preventive treatment of SuHx-induced PH mice; type: in vivo, mouse; details: compared with vehicle
Description: 8 to 10 week-old SPF-grade C57BL/6J male mice weighing 25 g to 30 g were fed in a hypoxia chamber (an oxygen concentration in the chamber was maintained at 10%) while receiving weekly subcutaneous injections of 20 mg/kg of SU5416 for 0 weeks (n=8), 1 week (n=8), 2 weeks (n=8), and 3 weeks (n=8). The mouse lung tissues were collected and assessed for RVSP and RVHI and analyzed for PAMT.
The RVSP can be used to evaluate a pulmonary artery pressure (PAP) of the mouse, and the RVHI can reflect the right ventricular involvement and right ventricular hypertrophy of the mouse due to excessive PVR. The specific operation steps were as follows: (1) After anesthetized with 2% pentobarbital sodium (50 mg/kg by intraperitoneal injection), the mice were fixed on an operating board. (2) Power Lab was started and then connected to a pressure transducer. (3) The skin of the anterior chest wall of the mouse was cut with surgical scissors to clearly expose the position of manubrium sternum. (4) A 22-gauge needle was inserted into the right ventricle (RV) at 45° along an intersection point of the manubrium sternum and the left costal margin through the closed chest, and a position of the needle tip in the heart cavity was determined by the waveform; a stable RVSP waveform was saved and an RVSP measured value were recorded through Chart program. (5) The mice were sacrificed to obtain the heart; excess connective tissue and appendages in the heart were removed, and a free wall of the right ventricle was cut; the right ventricle, left ventricle, and interventricular septum (Left ventricular+septum, LV+S) were weighed to calculate RVHI=RV/LV+S.
PAMT is used to analyze the morphological changes of pulmonary vessels. In the present disclosure, a primary antibody of α-smooth muscle actin (α-SMA), a surface marker of pulmonary vascular smooth muscle cells, was stained by immunohistochemistry, and then a percentage of PAMT was calculated to evaluate the pulmonary vascular remodeling of PH mice. […] After deparaffinized and antigen retrieval (a pH of citric acid buffer was 6.0), the section was incubated with a primary antibody against α-SMA at 4° C. overnight, and then incubated with a horseradish peroxidase-bound secondary antibody. After counterstained with hematoxylin, cell nuclei were rinsed with tap water and differentiated with 0.5% […], soaked in tap water for 15 min, routinely dehydrated, subjected to transparent treatment, sealed with glycerogelatin and photographed. Statistical analysis: pulmonary vessel thickness was measured with a diameter of (0-50) μm and (50-100) μm. At least 20 vessels with a diameter of (0-50) μm and at least 15 vessels with a diameter of (50-100) μm were assessed per mouse, and the PAMT percentage was calculated as: (outer circumference/2π-inner circumference/2π)/(outer circumference/2π)×100.
Echocardiography was conducted using a Vevo 2100 ultrasound imaging platform to evaluate the dynamic changes of blood flow in the right heart of PH mice. (1) The mice were depilated to fully expose the skin on the chest wall. (2) The mice were placed on a constant-temperature heating plate at 37° C., anesthetized with 3.0% isoflurane through the nose and mouth, and the inhalation was continued with 1.5% isoflurane after the mice were anesthetized. (3) The mice were smeared with a small amount of coupling agent on their limbs and the limbs were fixed, and dynamic changes of the body temperature, heart rate, respiration rate, and electrocardiogram for mice were continuously recorded, while ensuring that the mice were in a resting state. (4) The ultrasound probe was placed, an appropriate amount of coupling agent was added, the pulmonary artery acceleration time (PAAT), pulmonary artery ejection time (PAET), and velocity-time integral were determined at a short-axis position, and then obtained frequency spectrum was saved and added with color ultrasound. […]

[2] = 100 mg/kg intraperitoneally once a day, 14 injections
[3] = echocardiography, 100 mg/kg intraperitoneally once a day

O=C1CC(N2CCN(c3ccc(O)cc3)CC2)C(=O)N1c1ccccc1 (stereo not drawn) [ME1*]
tissue and organ damage (HE staining of lung, heart, liver, spleen, kidney, small intestine) ([1]; after the treatment, 14 injections): no obvious tissue and organ damage | body weight of the mice ([1]; weighed every week, compared with vehicle group): not significantly reduced | enzymatic activity of ME1 in mouse lung tissue (ME1): significantly inhibited | progression of PH (SuHx-induced PH mice; 100 mg/kg intraperitoneally once a day from second week, 14 injections): significantly slowed | RVHI (%) (SuHx-induced PH mice; [2]): significantly lower | RVSP (SuHx-induced PH mice; [2]): significantly lower | PA AT/ET (SuHx-induced PH mice; [3]): significantly higher | TAPSE (SuHx-induced PH mice; [3]): significantly higher | PAMT percentage (SuHx-induced PH mice; pulmonary artery diameters 0-50 μm and 50-100 μm, 100 mg/kg intraperitoneally once a day): significantly lower
